According to PMC7744152, “New potent steroid sulphatase inhibitors based on 6-(1-phenyl-1H-1,2,3-triazol-4-yl)naphthalen-2-yl sulphamate derivatives” (Journal of Enzyme Inhibition and Medicinal Chemistry, 2020):

What was measured:
Format in all cases: biochemical
steroid sulphatase (STS) [1] = target: T1, steroid sulphatase (STS) (Homo sapiens, UniProt P08842); experiment: radiolabelled [3H] oestrone sulphate hydrolysis, purified placental STS, […] inhibitor
T1 construct: STS enzyme extracted from human placenta and purified
T1 sequence (P08842 22-583): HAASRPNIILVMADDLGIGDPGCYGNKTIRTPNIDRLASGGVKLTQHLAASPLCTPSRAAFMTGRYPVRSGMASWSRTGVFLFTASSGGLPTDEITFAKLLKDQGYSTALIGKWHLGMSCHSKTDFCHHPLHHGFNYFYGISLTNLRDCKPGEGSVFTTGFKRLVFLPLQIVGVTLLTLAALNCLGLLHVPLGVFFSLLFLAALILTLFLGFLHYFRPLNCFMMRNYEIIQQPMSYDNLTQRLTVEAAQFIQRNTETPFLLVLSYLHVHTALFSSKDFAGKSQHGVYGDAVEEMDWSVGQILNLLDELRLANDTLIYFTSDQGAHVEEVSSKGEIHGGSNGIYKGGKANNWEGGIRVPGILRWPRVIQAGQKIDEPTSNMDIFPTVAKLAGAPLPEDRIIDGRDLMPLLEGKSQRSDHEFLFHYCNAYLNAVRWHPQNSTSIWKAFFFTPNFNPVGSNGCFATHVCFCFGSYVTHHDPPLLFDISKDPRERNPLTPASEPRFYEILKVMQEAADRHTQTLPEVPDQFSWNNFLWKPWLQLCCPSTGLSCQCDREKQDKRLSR

steroid sulphatase (STS) [2] = target: T1, steroid sulphatase (STS); experiment: radiolabelled [3H] oestrone sulphate hydrolysis, purified placental STS, […] inhibitor (also MCF-7 cell IC50 […])
steroid sulphatase (STS) [3] = target: T1, steroid sulphatase (STS); experiment: as above; remark: listed apart in the source
steroid sulphatase (STS) [4] = target: T1, steroid sulphatase (STS); experiment: as above; remark: listed apart in the source

| remaining activity at 0.5 µM (steroid sulphatase (STS) [1]) | Compound | further results |
| --- | --- | --- |
| 18.7% | NS(=O)(=O)Oc1ccc2cc(-c3cn(-c4ccc(Cl)cc4)nn3)ccc2c1 [3F, 6-(1-(4-Chlorophenyl)-1H-1,2,3-triazol-4-yl)naphthalen-2-yl sulphamate] |  |
|  | NS(=O)(=O)Oc1ccc2cc(-c3cn(-c4cc(F)cc(F)c4)nn3)ccc2c1 [3K, 6-(1-(3,5-Difluorophenyl)-1H-1,2,3-triazol-4-yl)naphthalen-2-yl sulphamate] | remaining activity at 0.5 µM (steroid sulphatase (STS) [2]): 14% |
| 23.1% | NS(=O)(=O)Oc1ccc2cc(-c3cn(-c4ccc(Br)cc4)nn3)ccc2c1 [3G, 6-(1-(4-Bromophenyl)-1H-1,2,3-triazol-4-yl)naphthalen-2-yl sulphamate] |  |
|  | NS(=O)(=O)Oc1ccc2cc(-c3cn(-c4ccc(F)c(F)c4F)nn3)ccc2c1 [3L, 6-(1-(2,3,4-Trifluorophenyl)-1H-1,2,3-triazol-4-yl)naphthalen-2-yl sulphamate] | remaining activity at 0.5 µM (steroid sulphatase (STS) [3]): 7.98% |
|  | NS(=O)(=O)Oc1ccc2cc(-c3cn(-c4ccccc4Cl)nn3)ccc2c1 [3I] | remaining activity at 0.5 µM (steroid sulphatase (STS) [4]): 16.9% |
| 15.9% | NS(=O)(=O)Oc1ccc2cc(-c3cn(-c4ccccc4Br)nn3)ccc2c1 [3J, 6-(1-(2-Bromophenyl)-1H-1,2,3-triazol-4-yl)naphthalen-2-yl sulphamate] |  |
| 9.66% | NS(=O)(=O)Oc1ccc2cc(-c3cn(-c4cccc(Cl)c4)nn3)ccc2c1 [3C, 6-(1-(3-Chlorophenyl)-1H-1,2,3-triazol-4-yl)naphthalen-2-yl sulphamate] |  |
| 9.62% | NS(=O)(=O)Oc1ccc2cc(-c3cn(-c4cccc(Br)c4)nn3)ccc2c1 [3D, 6-(1-(3-Bromophenyl)-1H-1,2,3-triazol-4-yl)naphthalen-2-yl sulphamate] |  |
| 17.4% | NS(=O)(=O)Oc1ccc2cc(-c3cn(-c4cccc(F)c4)nn3)ccc2c1 [3B, 6-(1-(3-Fluorophenyl)-1H-1,2,3-triazol-4-yl)naphthalen-2-yl sulphamate] |  |
